Measurements taken from patent publication US20240239854A1, “ANTIMICROBIAL PEPTIDES AND MODIFICATIONS THEREOF” (Donald Danforth Plant Science Center, priority 2022, published 2024).
Values after ≈ are worked out from the molar mass of the structure shown. Positions of bridges follow the written chain, without caps; N, C: chain ends. Non-standard residues stand in square brackets, D forms with d. Residues, ends and D or L forms follow the SMILES beside them. Dab = NCC[C@H](N)C(=O)O

How the values were obtained:
[1] = tested on: Colletotrichum gloeosporioides; test: 96-well plate antifungal MIC, resazurin cell viability (Example 4); format: cell-based; details: Table 19; unit not given, peptide concentrations in μM
[2] = tested on: Alternaria alternata; test: as above; format: cell-based; details: Table 19; unit not given, peptide concentrations in μM
[3] = tested on: Botrytis cinerea T-4; details: for MIC (μM) SFM: Table 18, SFM; for MIC (μM) (SFM + 2 mM CaCl2): Table 18, SFM + 2 mM CaCl2; for MIC (μM) (SFM + 100 mM KCl): Table 18, SFM + 100 mM KCl; for MIC (μM) (SFM + 100 mM NaCl): Table 18, SFM + 100 mM NaCl
[4] = tested on: Cercospora sojina; test: 96-well plate antifungal MIC, resazurin cell viability (Example 4); format: cell-based; details: Table 19; unit not given, peptide concentrations in μM
[5] = tested on: B. cinerea; test: Semi-in planta drop inoculation assay on detached leaves of N. benthamiana, gray mold (Example 4); format: in vivo; details: detached N. benthamiana leaves; for Reduction of gray mold disease symptoms (lesion sizes): peptide 1.5, 3 and 6 μM, 48 h after inoculation
[6] = tested on: Fusarium graminearum PH-1; format: cell-based; details: MIC Day 1; 96-well plate, resazurin cell viability
[7] = tested on: Zymoseptoria tritici IPO323; format: cell-based
[8] = tested on: Botrytis cinerea T4; format: cell-based
[9] = tested on: B. cinerea; test: Pepper - Botrytis cinerea in planta spray assay, preventative and curative; format: in vivo; details: pepper plants
[10] = tested on: F. graminearum; details: in vitro, low cationic conditions; F. graminearum
[11] = tested on: F. oxysporum; test: Antifungal MIC assay in SFM culture media (Example 1); format: cell-based; details: in vitro, low cationic conditions; F. oxysporum
[12] = tested on: P. capsici; test: as above; format: cell-based; details: in vitro, low cationic conditions
[13] = tested on: B. cinerea; details: for Antifungal activity relative to the wild-type GMA4C_AC control: in vitro, low cationic conditions
[14] = tested on: Z. tritici; test: Wheat - Zymoseptoria tritici in planta spray assay, curative; format: in vivo; details: wheat plants; 48 μM spray 24 hours after Z. tritici spores; 21 dpi
[15] = tested on: Candida glabrata; test: Antifungal MIC in RPMI medium; details: RPMI medium rich in cations
[16] = tested on: Candida auris; test: Antifungal MIC in RPMI medium; details: RPMI medium rich in cations

Molecule	In vitro antifungal activity (MIC) Colletotrichum gloeosporioides [1]	In vitro antifungal activity (MIC) Alternaria alternata [2]	MIC (μM) SFM [3]	MIC (μM) (SFM + 2 mM CaCl2) [3]	MIC (μM) (SFM + 100 mM KCl) [3]	MIC (μM) (SFM + 100 mM NaCl) [3]	In vitro antifungal activity (MIC) Cercospora sojina [4]	Antifungal activity relative to the wild-type GMA4C_AC control [10]	Antifungal activity relative to the wild-type GMA4C_AC control [11]	Antifungal activity relative to the wild-type GMA4C_AC control [12]	Antifungal activity relative to the wild-type GMA4C_AC control ([13]; B. cinerea)	further results
C[C@H](NC(=O)CN)C(=O)N[C@H]1CSSC[C@@H](C(N)=O)NC(=O)[C@H](CCCCN)NC(=O)[C@H](CCCCN)NC(=O)[C@H](Cc2ccc(O)cc2)NC(=O)[C@H](Cc2ccccc2)NC(=O)[C@H](Cc2ccccc2)NC(=O)[C@H](Cc2ccccc2)NC(=O)[C@H](C)NC(=O)[C@H](Cc2ccccc2)NC(=O)CNC(=O)[C@H](Cc2ccccc2)NC(=O)CNC(=O)[C@H](CCC(N)=O)NC(=O)[C@H](CCCNC(=N)N)NC(=O)[C@H](Cc2c[nH]cn2)NC1=O [GMA5CA_V4] (H-GACHRQGFGFAFFFYKKC-NH2; disulfide 3-18; N-terminus assumed)	>12	3	3 µM (≈ 6.33 µg/mL)	>12 µM	>12 µM	>12 µM	6	–	–	–	–	–
CC[C@H](C)[C@@H]1NC(=O)[C@H](CCCNC(=N)N)NC(=O)[C@H]([C@@H](C)O)NC(=O)[C@H](Cc2c[nH]c3ccccc23)NC(=O)[C@H](Cc2ccc(O)cc2)NC(=O)[C@H](Cc2c[nH]c3ccccc23)NC(=O)[C@H](CCCNC(=N)N)NC(=O)[C@H](CCCNC(=N)N)NC(=O)[C@H](CCCNC(=N)N)NC(=O)[C@H](Cc2ccccc2)NC(=O)CNC(=O)[C@H](CCCCN)NC(=O)[C@@H](NC(=O)[C@H](CCCNC(=N)N)NC(=O)CNC(=O)CN)CSSC[C@@H](C(N)=O)NC1=O [GMA4C_V10] (H-GGRCKGFRRRWYWTRIC-NH2; disulfide 4-17; N-terminus assumed)	>12	>12	3 µM (≈ 6.6 µg/mL)	3 µM	3 to 6 µM	3 µM	6	–	–	–	–	Reduction of gray mold symptoms at low concentrations ([5]; peptide 1.5 μM and 3 μM): more effective in reducing the symptoms of gray mold than GMA4C_V9; Reduction of gray mold disease symptoms (lesion sizes) [5]: effective in reducing gray mold disease symptoms
PD122.1.1: Setaria italica wild-type defensin SEQ ID NO: 715 with an N-terminal alanine, expressed in Pichia pastoris (RRCVSQSHKFVGSCMRKSNCQHVCQTEGFPWGECRFHGGLLRRCFCNKLC; N-terminal alanine; listed as Setaria italica)	–	–	–	–	–	–	–	–	–	–	–	F. graminearum PH-1 MIC Day1 [6]: 1.5 µM; Z. tritici IPO323 MIC Day 1 [7]: 0.75 µM; Z. tritici IPO323 MIC Day 7 [7]: 2.5 µM; Z. tritici IPO323 MIC Day 14 [7]: 3 µM; B. cinerea T4 MIC Day1 [8]: 0.75 µM; Curative protection against gray mold disease ([9]; 24 μM spray 24 hours after B. cinerea spores, 5 dpi): reduction of gray mold disease symptoms; Preventative protection against gray mold disease ([9]; 24 μM spray 24 hours before B. cinerea spores, 96 hpi): reduction of gray mold disease symptoms
N=C(N)NCCC[C@H](NC(=O)CNC(=O)[C@@H](N)Cc1ccccc1)C(=O)N[C@@H](CS)C(=O)N[C@@H](CCCNC(=N)N)C(=O)NCC(=O)N[C@@H](Cc1ccccc1)C(=O)N[C@@H](CCCNC(=N)N)C(=O)N[C@@H](CCCNC(=N)N)C(=O)N[C@@H](CCCNC(=N)N)C(=O)N[C@@H](CS)C(=O)N[C@@H](Cc1ccccc1)C(=O)N[C@@H](CS)C(=O)N[C@@H](Cc1c[nH]c2ccccc12)C(=O)N[C@@H](CCCNC(=N)N)C(=O)N[C@@H](Cc1c[nH]c2ccccc12)C(=O)N[C@@H](CS)C(N)=O [GMA4C_V4A] (H-FGRCRGFRRRCFCWRWC-NH2; N-terminus assumed)	–	–	–	–	–	–	–	equivalent	equivalent	equivalent	equivalent	Potency relative to GMA4C_AC in presence of cations ([13]; B. cinerea, 100 mM NaCl or 100 mM KCl): 2 fold; Fungal growth inhibition at 6 μM ([13]; B. cinerea, in presence of 2 mM CaCl2, peptide 6 μM): inhibit fungal growth
NCC[C@H](NC(=O)CNC(=O)[C@@H](N)Cc1ccccc1)C(=O)N[C@@H](CS)C(=O)N[C@@H](CCN)C(=O)NCC(=O)N[C@@H](Cc1ccccc1)C(=O)N[C@@H](CCN)C(=O)N[C@@H](CCN)C(=O)N[C@@H](CCN)C(=O)N[C@@H](CS)C(=O)N[C@@H](Cc1ccccc1)C(=O)N[C@@H](CS)C(=O)N[C@@H](Cc1c[nH]c2ccccc12)C(=O)N[C@@H](CCN)C(=O)N[C@@H](Cc1c[nH]c2ccccc12)C(=O)N[C@@H](CS)C(N)=O [GMA4C_V5A, FG(Dab)C(Dab)GF(Dab)(Dab)(Dab)CFCW(Dab)WC-NH2] (H-FG[Dab]C[Dab]GF[Dab][Dab][Dab]CFCW[Dab]WC-NH2; N-terminus assumed)	–	–	–	–	–	–	–	equivalent	equivalent	equivalent	equivalent	–
PD101.1.1: Nicotiana sylvestris wild-type defensin SEQ ID NO: 624 with an N-terminal alanine, expressed in Pichia pastoris (KLCRRRSKTFSSSCFISEHCDKECKEKEGAKRGMCIKKSIFGRFCYCFHKCK; N-terminal alanine; listed as Nicotiana sylvestris)	–	–	–	–	–	–	–	–	–	–	–	F. graminearum PH-1 MIC Day1 [6]: 1.5 µM; MIC against Z. tritici on day 1 [7]: 0.75 µM; MIC against Z. tritici on day 7 [7]: 1.5 µM; MIC against Z. tritici on day 14 [7]: 1.5 µM; Z. tritici IPO323 MIC Day 1 [7]: 0.75 µM; Z. tritici IPO323 MIC Day 7 [7]: 1.5 µM; Z. tritici IPO323 MIC Day 14 [7]: 1.5 µM; B. cinerea T4 MIC Day1 [8]: 1.5 µM; Curative protection against Septoria tritici blotch (STB) [14]: reduction of STB disease symptoms
CC[C@H](C)[C@@H]1NC(=O)[C@H](CCCNC(=N)N)NC(=O)[C@H]([C@@H](C)O)NC(=O)[C@H](Cc2ccccc2)NC(=O)[C@H](Cc2c[nH]c3ccccc23)NC(=O)[C@H](Cc2ccccc2)NC(=O)[C@H](CCCNC(=N)N)NC(=O)[C@H](CCCNC(=N)N)NC(=O)[C@H](CC(C)C)NC(=O)[C@H](Cc2ccccc2)NC(=O)CNC(=O)[C@H](CCCCN)NC(=O)[C@@H](NC(=O)[C@H](CCCNC(=N)N)NC(=O)CNC(=O)CN)CSSC[C@@H](C(N)=O)NC1=O [GMA4C_V9] (H-GGRCKGFLRRFWFTRIC-NH2; disulfide 4-17; N-terminus assumed)	>12	>12	3 µM (≈ 6.3 µg/mL)	12 µM	6 to 12 µM	3 µM	6	–	–	–	–	Reduction of gray mold disease symptoms (lesion sizes) [5]: effective in reducing gray mold disease symptoms
C[C@H](NC(=O)CN)C(=O)N[C@H]1CSSC[C@@H](C(N)=O)NC(=O)[C@H](CCCCN)NC(=O)[C@H](CCCCN)NC(=O)[C@H](Cc2ccc(O)cc2)NC(=O)[C@H](Cc2c[nH]c3ccccc23)NC(=O)[C@H](Cc2ccccc2)NC(=O)[C@H](Cc2c[nH]c3ccccc23)NC(=O)[C@H](C)NC(=O)[C@H](Cc2ccccc2)NC(=O)CNC(=O)[C@H](Cc2ccccc2)NC(=O)CNC(=O)[C@H](CCC(N)=O)NC(=O)[C@H](CCCNC(=N)N)NC(=O)[C@H](Cc2c[nH]cn2)NC1=O [GMA5CA_V3] (H-GACHRQGFGFAWFWYKKC-NH2; disulfide 3-18; N-terminus assumed)	>12	3	3 µM (≈ 6.57 µg/mL)	>12 µM	>12 µM	>12 µM	6	–	–	–	–	–
CC[C@H](C)[C@H](NC(=O)[C@H](CCCNC(=N)N)NC(=O)[C@@H](NC(=O)[C@@H](NC(=O)[C@H](Cc1ccccc1)NC(=O)[C@@H](NC(=O)[C@H](CCCNC(=N)N)NC(=O)[C@H](CCCNC(=N)N)NC(=O)[C@H](CCCNC(=N)N)NC(=O)[C@H](Cc1ccccc1)NC(=O)CNC(=O)[C@H](CCCNC(=N)N)NC(=O)[C@H](CS)NC(=O)[C@H](CCCNC(=N)N)NC(=O)CNC(=O)CN)C(C)C)C(C)C)[C@@H](C)O)C(=O)N[C@@H](CS)C(N)=O [GMA4C_V3A] (H-GGRCRGFRRRVFVTRIC-NH2; N-terminus assumed)	–	–	–	–	–	–	–	equivalent	equivalent	equivalent	equivalent	Antifungal activity against C. glabrata [15]: show antifungal activity; Antifungal activity against C. auris [16]: show antifungal activity; B. cinerea MIC [13]: 1.5 µM; MIC (μM) Botrytis cinerea [13]: 3 µM (≈ 6.12 µg/mL); MIC Values (μM) against B. cinerea [13]: 3 µM (≈ 6.12 µg/mL); SFM + 2 mM CaCl2 MIC [13]: >6 µM; SFM + 100 mM KCl MIC [13]: >6 µM; SFM + 100 mM NaCl MIC [13]: 1.5 to 3 µM; SFM MIC [13]: 3 µM
